According to patent US10701931B2, “Mosquito activating formulations” (Commonwealth Scientific and Industrial Research Organisation, priority 2015, dated 2020):
Values joined by “and” are separate entries in the source; they are usually repeats but may differ in a detail not shown here. Equal entries are not always repeated.

How the values were obtained:
[1] = test system: female Anopheles funestus antennae; conditions: cited from earlier work
[2] = test system: Anopheles stephensi maxillary palps; experiment: Electropalpogram (EPG), non bloodfed females; conditions: for EPG response compared to mineral oil control: n=7
Experimental: (§1) In order to assess Y-tube olfactometry experiments and field trials using an independent technique and to investigate the physiological basis of the observed activation and attraction behaviour, electroanntennogram (EAG) and electropalpogram (EPG) studies were performed on A. stephensi female mosquitoes. EAG studies were also performed on Anopheles farauti, Culex annulirostris and Aedes aegypti female mosquitoes.
(§2) Five to eight days Anopheles stephensi, two to fourteen days old Culex annulirostris and Aedes aegypti as well as four days old Anopheles faraulti non-blooded females, fed on 10% sucrose ad-libitum and then starved for >12 hours, were used. Mosquito head was excised and placed on the reference electrode coated with electrode gel (Parker Laboratories, Orange, N.J.). The distal end of the antennae or palp (<0.5 mm), cut to ensure a good electrical contact, were carefully placed on the recording electrode (Syntech, Germany). Signals were fed to a 10× amplifier and processed with IDAC 4 and PC-based interface and EAG software package (Syntech, Germany).
(§3) Thus 1-octen-3-ol was used in the EAG analysis as a positive control with thio compounds, (E and Z)-1-methylthio-1-propene, 3-methyl-thio-1-propanol, ally methyl sulphide, and carbon dioxide (5%) and mineral oil (negative control). Pure chemicals were diluted in mineral oil to a 10 times v/v stock solution, from which decadal dilutions were made. A 10 μl aliquot of each solution was applied to a filter paper strip (1×3.5 cm; Whatman No. 4, Fisher Scientific) and the solvent was evaporated under a fume hood before inserting the paper strip into 5 ml disposable plastic syringe (Terumo syringes). A 500 ms pulse (5 ml/s) was delivered by stimulus controller CS-55 (Syntech, Germany) to deliver chemical stimulants to a humidified continuous air flow (10 ml/s) over the electrophysiolgical preparation. The chemicals were tested randomly and applied with 0.5-1 min intervals between stimulations.
(§4) Initial screening was performed using a 10 times dilution (1/10, v/v) source dose solution. Then 1-methylthio-1-propene and 1-octen-3-ol were selected for further dose-response study. A minimum of five mosquitoes were tested for each compound to calculate the average EAG amplitude±standard error (SE).

[3] = test system: Anopheles farauti maxillary palps; experiment: Electropalpogram (EPG), non bloodfed females; conditions: chemicals at 1/10 concentrations, CO2 5%; for EPG response compared to mineral oil control: n=6
C. annulirostis antennae = experiment: Electroantennogram (EAG), non bloodfed females; parameters: species or system Culex annulirostris; conditions: n=5
Experimental: as §1, §2
(§5) Thus 1-octen-3-ol was used in the EAG analysis as a positive control with thio compounds, (E and Z)-1-methylthio-1-propene, 3-methyl-thio-1-propanol, ally methyl sulphide, and carbon dioxide (5%) and mineral oil (negative control). […]

[4] = test system: Anopheles stephensi antennae; experiment: Electroantennogram (EAG), non bloodfed females
Experimental: as §1, §2, §3, §4

[5] = test system: Anopheles farauti antennae; experiment: Electroantennogram (EAG), non bloodfed females; conditions: chemicals at 1/10 concentrations
Experimental: as §1, §2, §3, §4

[6] = test system: female An. gambiae antennae; conditions: cited from earlier work
Anopheles stephensi [7] = experiment: Y-tube olfactometer, measurement of activation against clean air; format: in vivo; conditions: for Concentration of greatest activation response: tested 10^-2 to 10^-5%; for Activation (against clean air): An. stephensi females
Experimental: A y-tube olfactometer was used to establish whether the volatile components of human breath elicited behavioural responses in the malaria vector Anopheles stephensi. The MR4 strain of An. stephensi (New Delhi, India) was maintained at 27° C., 70% RH, 12:12 L:D and 30 min dawn/dusk periods). 4 to 7 day old female mosquitoes, that had never received a blood meal, were used in experiments. Mosquitoes were maintained on 10% sugar solution ad libitum but starved for 12 hr prior to testing. The Y tube olfactometer is made entirely of glass and consists of a release chamber, the Y tube itself, and a trap chamber attached to each arm (FIG. 1). Each trap chamber is divided in two by a fine glass filter. On the far side of those filters, the trap chambers can connect to charcoal filters or to gas bags or gas cylinders. Air is pulled through the olfactometer by connecting the release chamber to a vacuum tap which vents the contents of the tube. Standard air flow (0.4 L/minute) is maintained using a 0.1-1.2 LPM flow meter (John Morris Pty, LTD). The air volume of the Y-tube is approximately 1 litre and is therefore replaced every 2.5 minutes. One arm is attached to a gas bag of clean air (from a compressed air cylinder) […]. The other arm remains connected to a carbon filter and the air inlet to give a plume of compressed air plus test stimuli (i.e. standard air concentration of CO2 only). 1 μl 10^−2 to 10^−5% test stimuli in mineral oil (Sigma Aldrich) was spotted on 1 cm^2 Whatman filter paper. Test stimuli was delivered by placing treated filter paper between the air inlet and the trap chamber to give a plume of compressed air plus test stimuli (i.e. standard air concentration of CO2 only). All experiments were run under PC2 quarantine conditions, at 27° C., 70% RH, under infrared light. Observers were always in the same position during the tests, at the trap chamber end of the olfactometer, between the 2 arms of the Y tube. Using an aspirator, 25-30 starved female An. stephensi were introduced into the release chamber (FIG. 1). […] After each test, mosquitoes were carefully aspirated from the apparatus by disconnecting constituent parts. The apparatus was flushed with clean air (charcoal filters only) for 5 minutes before the next batch of stimuli was introduced. A total of 10 replicates (different batches of mosquitoes) were run for each stimuli assessment. Treatment and control arms were alternated between replicates. After completion of 10 replicates, the apparatus was rinsed in acetone and allowed to dry overnight. Initial experiments were therefore less concerned with directional responses and more with establishing the range of doses that appeared to cause some form of excitation. Those initial experiments were conducted in comparison to a neutral control (a negative would be repellent) of clean air drawn through a charcoal filter. The test stimuli were tested against mosquitoes at serial dilutions in the range 10^−2 to 10^−5%. Once mosquitoes had stopped responding, the numbers in the olfactometer arms, base leg and release chamber were counted. Mosquitoes were assumed to have been “activated” if they moved into the Y tube arms.

Anopheles stephensi [8] = experiment: Y-tube olfactometer, measurement of attraction against CO2/1-octen-3-ol positive control; format: in vivo; conditions: for Attraction (against CO2 + 1-octen-3-ol): An. stephensi females
Experimental: Attraction to these components was compared to a standard “positive control” known to elicit a directional response in An. stephensi mosquitoes placed in an olfactometer. The standard used as a positive control is a mix of compressed air, 5% CO2 and an octenol source. Unpaired t-test was used to test for the differences in means for all data sets presented.
The MR4 strain of An. stephensi (New Delhi, India) was maintained at 27° C., 70% RH, 12:12 L:D and 30 min dawn/dusk periods). 4 to 7 day old female mosquitoes, that had never received a blood meal, were used in experiments. Mosquitoes were maintained on 10% sugar solution ad libitum but starved for 12 hr prior to testing.
The Y tube olfactometer is made entirely of glass and consists of a release chamber, the Y tube itself, and a trap chamber attached to each arm (FIG. 1). Each trap chamber is divided in two by a fine glass filter. On the far side of those filters, the trap chambers can connect to charcoal filters or to gas bags or gas cylinders. Air is pulled through the olfactometer by connecting the release chamber to a vacuum tap which vents the contents of the tube. Standard air flow (0.4 L/minute) is maintained using a 0.1-1.2 LPM flow meter (John Morris Pty, LTD). The air volume of the Y-tube is approximately 1 litre and is therefore replaced every 2.5 minutes.
1 μl 10^−4% 1-octen-3-ol in mineral oil (Sigma Aldrich) was spotted on 1 cm^2 Whatman filter paper.
5% CO2 by volume was added to a 10 L FlexFilm gasbag (SKC Inc.) of compressed air.
When a CO2/1-octen-3-ol mix was required, 5% CO2 was delivered by connecting the gas bag to the requisite Y tube arm and placing the 1-octen-3-ol treated filter paper between the gasbag inlet and the glass filter of the trap chamber.
All experiments were run under PC2 quarantine conditions, at 27° C., 70% RH, under infrared light. Observers were always in the same position during the tests, at the trap chamber end of the olfactometer, between the 2 arms of the Y tube.
Using an aspirator, 25-30 starved female An. stephensi were introduced into the release chamber (FIG. 1).
After each test, mosquitoes were carefully aspirated from the apparatus by disconnecting constituent parts. The apparatus was flushed with clean air (charcoal filters only) for 5 minutes before the next batch of stimuli was introduced.
A total of 10 replicates (different batches of mosquitoes) were run for each stimuli assessment. Treatment and control arms were alternated between replicates. After completion of 10 replicates, the apparatus was rinsed in acetone and allowed to dry overnight.
Once the range of doses that “activated” mosquitoes had been established, the capacity of those concentrations to initiate a directional response was tested. In this instance, experiments were conducted in comparison to a positive control of CO2/1-octen-3-ol [[…]]. […] A positive control was used to assess whether test stimuli were at least as attractive as a standard directional stimulus.

Total mosquito = experiment: Field trial with CDC light traps, total mosquito catch; format: in vivo; conditions: CDC light trap, one night, treatment per Table 3
Experimental: (§6) Field trials based on an imperfect Latin square design compared the attraction of An. farauti to MTPE with and without CO2. Treatments included CO2 alone, CO2 in combination with MTPE lure, or MTPE lure alone. Centres for Disease Control and Prevention (CDC) light traps were used to deliver MTPE lures and/or CO2. MTPE lures consisted of 500 μl of MTPE in mineral oil, 10-100,000 ppm spread on filter paper. MTPE/mineral oil mixtures were spread on filter paper, rolled into a tight wick, and inserted into a specimen tube. Specimen tubes where then wired to a CDC trap. CO2 was delivered using 1 kg dry ice, hung above a CDC light trap, as per standard sampling protocols. MTPE+/−CO2 combinations were randomised between 4 trap positions over three nights. Traps were placed at least 50 m apart to manage interference and were set between 5 pm and 7 am each night. Trap catches were subsequently returned to the laboratory, counted and identified as “Anopheles farauti s.l” or “other”.
(§7) As CO2 is a known mosquito attractant, all catches were compared to CO2 alone.

Anopheles farauti s.l = experiment: Field trial with CDC light traps, Anopheles farauti s.l catch; format: in vivo; conditions: for Anopheles farauti s.l catch numbers: CDC light trap, one night, treatment per Table 3
Experimental: as §6, §7

A. aegypti antennae = experiment: Electroantennogram (EAG), non bloodfed females; parameters: species or system Aedes aegypti; conditions: n=5
Experimental: as §1, §2, §5

[9] = chemicals at 1/10 concentrations, CO2 5%
[10] = dilution 0.00001 (10^-5)% in mineral oil
[11] = dilution 0.0001 (10^-4)% in mineral oil
[12] = dilution 0.01 (10^-2)% in mineral oil
[13] = dilution 0.001 (10^-3)% in mineral oil

C=CC(O)CCCCC (stereo not shown) [1-octen-3-ol, reference compound]
EAG response [1]: significant EAG response | EPG response compared to mineral oil control [2, 9]: did not | EPG response compared to mineral oil control [3]: did not | EAG response, comparison among tested chemicals (C. annulirostis antennae): strongest response | EAG response compared to mineral oil control ([4]; chemicals at 1/10 concentrations, CO2 5%, n=6): significantly responded | EAG response compared to mineral oil control ([5]; CO2 5%, n=5): significantly responding | EAG response [6]: significant EAG response

C=CCSC [AMS, Allyl methyl sulphide]
EPG response compared to mineral oil control [2, 9]: significant responses | Concentration of greatest activation response (Anopheles stephensi [7]; against clean air): 0.00001 % v/v | Activation (against clean air) (Anopheles stephensi [7]; [10]): caused activation and Yes | Activation (against clean air) (Anopheles stephensi [7]; [11]): Yes | Activation (against clean air) (Anopheles stephensi [7]; [12]): Yes | Attractiveness relative to 1-octen-3-ol/CO2 (Anopheles stephensi [8]; at 0.00001%): twice | Attraction (against CO2 + 1-octen-3-ol) (Anopheles stephensi [8]; dilution 0.00001 (10^-5)%): Yes

O=C=O [CO2, carbon dioxide, reference compound]
EPG response compared to mineral oil control [2, 9]: significant responses | Total mosquito catch numbers (Total mosquito; CO2 alone (1 kg dry ice)): 206 and 233 and 298 | EPG response compared to mineral oil control [3]: significant responses

CC=CSC [MTPE, 1-methylthio-1-propene]
EPG response, comparison among tested chemicals [2, 9]: strongest response | EPG response compared to mineral oil control [2, 9]: significant responses | EPG response, dose dependence ([2]; decadal dilutions, n=6): dose dependant | Total mosquito catch numbers (Total mosquito; 100 ppm MTPE lure alone): 189 | Total mosquito catch numbers (Total mosquito; CO2 + 1000 ppm MTPE lure): 203 and 264 and 358 | Concentration of greatest activation response (Anopheles stephensi [7]; against clean air): 0.0001 % v/v | Activation compared with that at 0.0001% v/v (Anopheles stephensi [7]; at lower (0.00001%) and higher (0.001-0.01%) concentrations (v/v)): reduced | Activation (against clean air) (Anopheles stephensi [7]; [10]): Yes | Activation (against clean air) (Anopheles stephensi [7]; [11]): Yes | Activation (against clean air) (Anopheles stephensi [7]; [13]): Yes | Activation (against clean air) (Anopheles stephensi [7]; [12]): Yes | EPG response, comparison among tested chemicals [3]: strongest response | Attractancy in field trial, compared to CO2 alone (Anopheles farauti s.l; 100 ppm): attractive | Anopheles farauti s.l catch numbers (Anopheles farauti s.l; 100 ppm MTPE lure alone): 28 | Attractancy in field trial, effect of CO2 (Anopheles farauti s.l; 1,000 ppm MTPE with CO2): CO2 synergises attractancy | Attractancy in field trial, compared to CO2 alone (Anopheles farauti s.l; 10,000 ppm): not attractive, possibly repellent | Attractancy in field trial, compared to CO2 alone (Anopheles farauti s.l; 100,000 ppm): not attractive, possibly repellent | Anopheles farauti s.l catch numbers (Anopheles farauti s.l; CO2 + 1000 ppm MTPE lure): 89 and 78 and 63 | Dose dependence of attractancy in field trial (Anopheles farauti s.l; MTPE lures 100-100,000 ppm): Dose dependent attractancy | EAG response, comparison among tested chemicals ([4]; chemicals at 1/10 concentrations): strongest response | EAG response, dose dependence ([4]; decadal dilutions, n=7): dose dependant | EAG response, comparison among tested chemicals [5]: strongest response | Attractiveness relative to 1-octen-3-ol/CO2 (Anopheles stephensi [8]; at 0.0001%): more attractive | Attraction (against CO2 + 1-octen-3-ol) (Anopheles stephensi [8]; dilution 0.0001 (10^-4)%): Yes

CSCCCO [MTPL, 3-methylthio-1-propanol]
EPG response compared to mineral oil control [2, 9]: did not | Concentration range over which an activation response was initiated (Anopheles stephensi [7]; against clean air): 0.00001-0.01% | Activation (against clean air) (Anopheles stephensi [7]; [11]): Yes | Activation (against clean air) (Anopheles stephensi [7]; [13]): Yes | Activation (against clean air) (Anopheles stephensi [7]; [12]): Yes | EAG response, comparison among tested chemicals (C. annulirostis antennae): strongest response | Attractiveness relative to 1-octen-3-ol/CO2 (Anopheles stephensi [8]; at 0.01%): 1.5 | EAG response, comparison among tested chemicals (A. aegypti antennae): strongest response
